Measurements taken from ChEMBL document CHEMBL1151836, “Citronamides A and B, tetrapeptides from the Australian sponge Citronia astra” (J Nat Prod, 2009).
≈ marks a conversion by molar mass, not a printed value. Calls of active or inactive are those of the source. No cut-off for these calls is given here.

Tests used:
Plasmodium falciparum = experiment: Antimalarial activity against chloroquine-resistant Plasmodium falciparum Dd2 at 120 uM after 72 hrs by DAPI stain; format: functional
HeLa = experiment: Cytotoxicity against human HeLa cells upto 120 uM after 72 hrs by alamar blue assay; format: functional, cell-based
HEK293 = experiment: Cytotoxicity against HEK293 cells upto 120 uM after 72 hrs by alamar blue assay; format: cell-based; conditions: human, hek293, 72 h
Trypanosoma brucei = experiment: Antitrypanosomal activity against Trypanosoma brucei BS427 upto 120 uM after 48 hrs by alamar blue assay; format: functional, organism-based
Staphylococcus = experiment: Antibacterial activity against Staphylococcus albus epidermis strain at 800 ug/mL after 19 to 20 hrs by agar hole punch diffusion assay; format: functional, organism-based
Escherichia coli = experiment: Antibacterial activity against Escherichia coli K-12 after 19 to 20 hrs by agar hole punch diffusion assay; format: functional
Saccharomyces cerevisiae = experiment: Antibacterial activity against Saccharomyces cerevisiae after 19 to 20 hrs by agar hole punch diffusion assay; format: functional

For CC[C@@H](C)[C@@H](NC(=O)[C@@H](NC(=O)[C@H](NC(=O)CCCCC(N)Cc1ccc(OC)cc1)[C@@H](O[C@@H]1O[C@@H](C(=O)O)[C@@H](O)[C@H](OC(N)=O)[C@H]1O)c1c[nH]c(=O)[nH]1)[C@@H](C)CC)C(=O)O (some centres not stated) [CITRONAMIDE A], the Activity (Plasmodium falciparum) was 24%, the Activity (HeLa) was “inactive” and the Activity (HEK293) was “Not Active”. For the same compound, the Activity (Trypanosoma brucei) was “inactive”, the Activity (Staphylococcus) was “inactive” and the MIC (Escherichia coli) was 80 mg/L (≈ 92.4 µM). The MIC (Saccharomyces cerevisiae) was 8 mg/L (≈ 9.24 µM).
